Measured values reported in ChEMBL document CHEMBL2429768, “Eco-friendly synthesis and antimicrobial activities of substituted-5-(1H-indol-3-yl)methylene)-2,2-dimethyl-1,3-dioxane-4,6-dione derivatives” (2013).
Converted amounts (≈) assume the structure as drawn.

Key:
Type in all cases: functional
Fusarium oxysporum [1] = assay: Antifungal activity against Fusarium oxysporum at 300 ug/ml after 72 hrs by agar well diffusion method; conditions: read-out: DIZ
Aspergillus niger [2] = assay: Antifungal activity against Aspergillus niger at 500 ug/ml after 72 hrs by agar well diffusion method; conditions: read-out: DIZ
Klebsiella pneumoniae [3] = assay: Antibacterial activity against Klebsiella pneumoniae after 24 hrs by agar well diffusion method
Bacillus subtilis [4] = assay: Antibacterial activity against Bacillus subtilis after 24 hrs by agar well diffusion method
Escherichia coli [5] = assay: Antibacterial activity against Escherichia coli ATCC 8739 at 50 ug/ml after 24 hrs by agar well diffusion method; conditions: ATCC 8739, 24 h, read-out: DIZ
Rhizoctonia solani [6] = assay: Antifungal activity against Rhizoctonia solani at 500 ug/ml after 72 hrs by agar well diffusion method; conditions: read-out: DIZ
Aspergillus niger [7] = assay: Antifungal activity against Aspergillus niger after 72 hrs by agar well diffusion method
Escherichia coli [8] = assay: Antibacterial activity against Escherichia coli ATCC 8739 at 100 ug/ml after 24 hrs by agar well diffusion method; conditions: ATCC 8739, 24 h, read-out: DIZ
Aspergillus flavus [9] = assay: Antifungal activity against Aspergillus flavus at 200 ug/ml after 72 hrs by agar well diffusion method; conditions: read-out: DIZ
Escherichia coli [10] = assay: Antibacterial activity against Escherichia coli ATCC 8739 at 200 ug/ml after 24 hrs by agar well diffusion method; conditions: ATCC 8739, 24 h, read-out: DIZ
Fusarium oxysporum [11] = assay: Antifungal activity against Fusarium oxysporum at 100 ug/ml after 72 hrs by agar well diffusion method; conditions: read-out: DIZ
Rhizoctonia solani [12] = assay: Antifungal activity against Rhizoctonia solani at 300 ug/ml after 72 hrs by agar well diffusion method; conditions: read-out: DIZ
Staphylococcus aureus [13] = assay: Antibacterial activity against Staphylococcus aureus ATCC 6538 at 300 ug/ml after 24 hrs by agar well diffusion method; conditions: ATCC 6538, 24 h, read-out: DIZ
Staphylococcus aureus [14] = assay: Antibacterial activity against Staphylococcus aureus ATCC 6538 at 200 ug/ml after 24 hrs by agar well diffusion method; conditions: ATCC 6538, 24 h, read-out: DIZ
Staphylococcus aureus [15] = assay: Antibacterial activity against Staphylococcus aureus ATCC 6538 at 100 ug/ml after 24 hrs by agar well diffusion method; conditions: ATCC 6538, 24 h, read-out: DIZ
Bacillus subtilis [16] = assay: Antibacterial activity against Bacillus subtilis at 100 ug/ml after 24 hrs by agar well diffusion method; conditions: read-out: DIZ
Aspergillus niger [17] = assay: Antifungal activity against Aspergillus niger at 200 ug/ml after 72 hrs by agar well diffusion method; conditions: read-out: DIZ
Staphylococcus aureus [18] = assay: Antibacterial activity against Staphylococcus aureus ATCC 6538 after 24 hrs by agar well diffusion method; conditions: ATCC 6538, 24 h
Aspergillus flavus [19] = assay: Antifungal activity against Aspergillus flavus at 500 ug/ml after 72 hrs by agar well diffusion method; conditions: read-out: DIZ
Rhizoctonia solani [20] = assay: Antifungal activity against Rhizoctonia solani at 100 ug/ml after 72 hrs by agar well diffusion method; conditions: read-out: DIZ
Klebsiella pneumoniae [21] = assay: Antibacterial activity against Klebsiella pneumoniae at 50 ug/ml after 24 hrs by agar well diffusion method; conditions: read-out: DIZ
Aspergillus flavus [22] = assay: Antifungal activity against Aspergillus flavus after 72 hrs by agar well diffusion method
Escherichia coli [23] = assay: Antibacterial activity against Escherichia coli ATCC 8739 at 500 ug/ml after 24 hrs by agar well diffusion method; conditions: ATCC 8739, 24 h, read-out: DIZ
Rhizoctonia solani [24] = assay: Antifungal activity against Rhizoctonia solani at 200 ug/ml after 72 hrs by agar well diffusion method; conditions: read-out: DIZ
Staphylococcus aureus [25] = assay: Antibacterial activity against Staphylococcus aureus ATCC 6538 at 500 ug/ml after 24 hrs by agar well diffusion method; conditions: ATCC 6538, 24 h, read-out: DIZ
Aspergillus niger [26] = assay: Antifungal activity against Aspergillus niger at 100 ug/ml after 72 hrs by agar well diffusion method; conditions: read-out: DIZ
Fusarium oxysporum [27] = assay: Antifungal activity against Fusarium oxysporum at 500 ug/ml after 72 hrs by agar well diffusion method; conditions: read-out: DIZ
Rhizoctonia solani [28] = assay: Antifungal activity against Rhizoctonia solani at 50 ug/ml after 72 hrs by agar well diffusion method; conditions: read-out: DIZ
Escherichia coli [29] = assay: Antibacterial activity against Escherichia coli ATCC 8739 after 24 hrs by agar well diffusion method; conditions: ATCC 8739, 24 h
Staphylococcus aureus [30] = assay: Antibacterial activity against Staphylococcus aureus ATCC 6538 at 50 ug/ml after 24 hrs by agar well diffusion method; conditions: ATCC 6538, 24 h, read-out: DIZ
Aspergillus flavus [31] = assay: Antifungal activity against Aspergillus flavus at 100 ug/ml after 72 hrs by agar well diffusion method; conditions: read-out: DIZ
Klebsiella pneumoniae [32] = assay: Antibacterial activity against Klebsiella pneumoniae at 500 ug/ml after 24 hrs by agar well diffusion method; conditions: read-out: DIZ
Rhizoctonia solani [33] = assay: Antifungal activity against Rhizoctonia solani after 72 hrs by agar well diffusion method
Fusarium oxysporum [34] = assay: Antifungal activity against Fusarium oxysporum at 50 ug/ml after 72 hrs by agar well diffusion method; conditions: read-out: DIZ
Aspergillus flavus [35] = assay: Antifungal activity against Aspergillus flavus at 300 ug/ml after 72 hrs by agar well diffusion method; conditions: read-out: DIZ
Klebsiella pneumoniae [36] = assay: Antibacterial activity against Klebsiella pneumoniae at 200 ug/ml after 24 hrs by agar well diffusion method; conditions: read-out: DIZ
Aspergillus niger [37] = assay: Antifungal activity against Aspergillus niger at 50 ug/ml after 72 hrs by agar well diffusion method; conditions: read-out: DIZ
Bacillus subtilis [38] = assay: Antibacterial activity against Bacillus subtilis at 300 ug/ml after 24 hrs by agar well diffusion method; conditions: read-out: DIZ
Escherichia coli [39] = assay: Antibacterial activity against Escherichia coli ATCC 8739 at 300 ug/ml after 24 hrs by agar well diffusion method; conditions: ATCC 8739, 24 h, read-out: DIZ
Bacillus subtilis [40] = assay: Antibacterial activity against Bacillus subtilis at 50 ug/ml after 24 hrs by agar well diffusion method; conditions: read-out: DIZ
Bacillus subtilis [41] = assay: Antibacterial activity against Bacillus subtilis at 500 ug/ml after 24 hrs by agar well diffusion method; conditions: read-out: DIZ
Fusarium oxysporum [42] = assay: Antifungal activity against Fusarium oxysporum after 72 hrs by agar well diffusion method
Aspergillus niger [43] = assay: Antifungal activity against Aspergillus niger at 300 ug/ml after 72 hrs by agar well diffusion method; conditions: read-out: DIZ
Klebsiella pneumoniae [44] = assay: Antibacterial activity against Klebsiella pneumoniae at 300 ug/ml after 24 hrs by agar well diffusion method; conditions: read-out: DIZ
Fusarium oxysporum [45] = assay: Antifungal activity against Fusarium oxysporum at 200 ug/ml after 72 hrs by agar well diffusion method; conditions: read-out: DIZ
Aspergillus flavus [46] = assay: Antifungal activity against Aspergillus flavus at 50 ug/ml after 72 hrs by agar well diffusion method; conditions: read-out: DIZ
Bacillus subtilis [47] = assay: Antibacterial activity against Bacillus subtilis at 200 ug/ml after 24 hrs by agar well diffusion method; conditions: read-out: DIZ
Klebsiella pneumoniae [48] = assay: Antibacterial activity against Klebsiella pneumoniae at 100 ug/ml after 24 hrs by agar well diffusion method; conditions: read-out: DIZ

CC1(C)OC(=O)C(=Cc2c[nH]c3ccccc23)C(=O)O1 was tested, and the zone of inhibition at 300 µg/mL (Fusarium oxysporum [1]) was 21 mm, the zone of inhibition at 500 µg/mL (Aspergillus niger [2]) was 26 mm and the MIC (Klebsiella pneumoniae [3]) was 10 µg/mL (≈ 36.9 µM). It also gave an MIC (Bacillus subtilis [4]) of 20 µg/mL (≈ 73.7 µM), a zone of inhibition at 50 µg/mL (Escherichia coli [5]) of 10 mm and a zone of inhibition at 500 µg/mL (Rhizoctonia solani [6]) of 32 mm. For the same compound, the MIC (Aspergillus niger [7]) was 30 µg/mL (≈ 111 µM), the zone of inhibition at 100 µg/mL (Escherichia coli [8]) was 15 mm and the zone of inhibition at 200 µg/mL (Aspergillus flavus [9]) was 13 mm. The zone of inhibition at 200 µg/mL (Escherichia coli [10]) was 18 mm, the zone of inhibition at 100 µg/mL (Fusarium oxysporum [11]) was 14 mm and the zone of inhibition at 300 µg/mL (Rhizoctonia solani [12]) was 24 mm. For the same compound, the zone of inhibition at 300 µg/mL (Staphylococcus aureus [13]) was 20 mm, the zone of inhibition at 200 µg/mL (Staphylococcus aureus [14]) was 16 mm and the zone of inhibition at 100 µg/mL (Staphylococcus aureus [15]) was 12 mm. It also gave a zone of inhibition at 100 µg/mL (Bacillus subtilis [16]) of 11 mm, a zone of inhibition at 200 µg/mL (Aspergillus niger [17]) of 15 mm and an MIC (Staphylococcus aureus [18]) of 20 µg/mL (≈ 73.7 µM). It also gave a zone of inhibition at 500 µg/mL (Aspergillus flavus [19]) of 24 mm, a zone of inhibition at 100 µg/mL (Rhizoctonia solani [20]) of 15 mm and a zone of inhibition at 50 µg/mL (Klebsiella pneumoniae [21]) of 11 mm. For the same compound, the MIC (Aspergillus flavus [22]) was 35 µg/mL (≈ 129 µM), the zone of inhibition at 500 µg/mL (Escherichia coli [23]) was 32 mm and the zone of inhibition at 200 µg/mL (Rhizoctonia solani [24]) was 19 mm. It also gave a zone of inhibition at 500 µg/mL (Staphylococcus aureus [25]) of 27 mm, a zone of inhibition at 100 µg/mL (Aspergillus niger [26]) of 11 mm and a zone of inhibition at 500 µg/mL (Fusarium oxysporum [27]) of 31 mm. It also gave a zone of inhibition at 50 µg/mL (Rhizoctonia solani [28]) of 10 mm, an MIC (Escherichia coli [29]) of 10 µg/mL (≈ 36.9 µM) and a zone of inhibition at 50 µg/mL (Staphylococcus aureus [30]) of 8 mm. It also gave a zone of inhibition at 100 µg/mL (Aspergillus flavus [31]) of 10 mm, a zone of inhibition at 500 µg/mL (Klebsiella pneumoniae [32]) of 33 mm and an MIC (Rhizoctonia solani [33]) of 25 µg/mL (≈ 92.2 µM). The zone of inhibition at 50 µg/mL (Fusarium oxysporum [34]) was 10 mm, the zone of inhibition at 300 µg/mL (Aspergillus flavus [35]) was 17 mm and the zone of inhibition at 200 µg/mL (Klebsiella pneumoniae [36]) was 20 mm. The zone of inhibition at 50 µg/mL (Aspergillus niger [37]) was 7 mm, the zone of inhibition at 300 µg/mL (Bacillus subtilis [38]) was 17 mm and the zone of inhibition at 300 µg/mL (Escherichia coli [39]) was 22 mm. For the same compound, the zone of inhibition at 50 µg/mL (Bacillus subtilis [40]) was 6 mm, the zone of inhibition at 500 µg/mL (Bacillus subtilis [41]) was 25 mm and the MIC (Fusarium oxysporum [42]) was 25 µg/mL (≈ 92.2 µM). For the same compound, the zone of inhibition at 300 µg/mL (Aspergillus niger [43]) was 19 mm, the zone of inhibition at 300 µg/mL (Klebsiella pneumoniae [44]) was 25 mm and the zone of inhibition at 200 µg/mL (Fusarium oxysporum [45]) was 17 mm. It also gave a zone of inhibition at 50 µg/mL (Aspergillus flavus [46]) of 5 mm, a zone of inhibition at 200 µg/mL (Bacillus subtilis [47]) of 14 mm and a zone of inhibition at 100 µg/mL (Klebsiella pneumoniae [48]) of 16 mm.
